Laboratory results as given in PubChem BioAssay (NCI).
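Where inhibition never reached the appropriate level, the endpoint shown equals the highest concentration tested. Otherwise, values were interpolated linearly from a five-concentration, 48-hour dose response in 96-well plates. At the TGI there is no net growth.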

How the values were obtained:
Experiment in all cases: NCI tumour cell line growth inhibition, 48 h
[1] = system: NCI-H226 lung
[2] = system: BT-549 breast
[3] = system: CAKI-1 renal
[4] = system: OVCAR-3 ovarian
[5] = system: HOP-92 NSCLC
[6] = system: KM12 colon
[7] = system: HCT-15 colon
[8] = system: SF-268 CNS
[9] = system: SK-MEL-2 melanoma
[10] = system: NCI-H460 lung
[11] = system: MDA-N
[12] = system: SW-620 colon
[13] = system: COLO 205 colon
[14] = system: HCT-116 colon
[15] = system: T-47D breast
[16] = system: TK-10 renal
[17] = system: NCI/ADR-RES ovarian
[18] = system: SR leukemia
[19] = system: PC-3 prostate
[20] = system: ACHN renal
[21] = system: SK-MEL-5 melanoma
[22] = system: IGROV1 ovarian
[23] = system: OVCAR-4 ovarian
[24] = system: SN12C renal
[25] = system: HCC-2998 colon
[26] = system: LOX IMVI melanoma
[27] = system: MDA-MB-435
[28] = system: MOLT-4 leukemia
[29] = system: HT29 colon
[30] = system: UACC-62 melanoma
[31] = system: SNB-19 CNS
[32] = system: SNB-75 CNS
[33] = system: EKVX NSCLC
[34] = system: OVCAR-5 ovarian
[35] = system: NCI-H23 lung
[36] = system: OVCAR-8 ovarian
[37] = system: K-562 leukemia
[38] = system: RPMI-8226 leukemia
[39] = system: HOP-62 NSCLC
[40] = system: UACC-257 melanoma
[41] = system: CCRF-CEM leukemia
[42] = system: HS 578T breast
[43] = system: SK-OV-3 ovarian
[44] = system: A498 renal
[45] = system: M14 melanoma
[46] = system: MCF7 breast
[47] = system: A549 NSCLC
[48] = system: UO-31 renal
[49] = system: U251 CNS
[50] = system: SF-539 CNS
[51] = system: NCI-H522 lung
[52] = system: SF-295 CNS
[53] = system: 786-0 renal
[54] = system: MDA-MB-231 breast
[55] = system: DU-145 prostate
[56] = system: MALME-3M melanoma
[57] = system: HL-60(TB) leukemia
[58] = system: SK-MEL-28 melanoma

Measured: TGI

Oc1[nH]c2ccccc2c1N=NC1=NCCCCN1
not listed: [57] | [58]
> 100 µM: all other assays above

N#Cc1c[nH]n2ccnc12
not listed: [5] | [26] | [27] | [38] | [50] | [56]
> 100 µM: all other assays above
